Results reported in US8969554B2, “6-acyl-1,2,4-triazine-3,5-dione derivative and herbicides” (Kumiai Chemical Industry Co., Ltd., priority 2010, dated 2015).

Tests used:
Format in all cases: in vivo
[1] = test system: Echinochloa crus-galli; experiment: Herbicidal activity by field foliage treatment (Test example 3); set-up: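 index 0 to 10 in 10% steps of herbicidal effect with 10 meaning complete death and 0 below 10%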; details: 1000 g effective component per hectare, day 14 after the treatment
Summary of the method: (§1)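 Potted field-soil plants grown 2 weeks in a greenhouse were sprayed over the whole foliage with diluted wettable powder at 1000 L/ha, delivering 1000 g active ingredient per hectare. Herbicidal effect scored by visual criteria 14 days after treatment.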

[2] = test system: Indian millet; experiment: as above; set-up: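 index 0 to 10 in 10% steps of herbicidal effect with 10 meaning complete death and 0 below 10%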; details: 1000 g effective component per hectare, day 14 after the treatment
Summary of the method: (§2)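 Herbicidal effect is rated on a scoring scale 14 days after treatment. Seedlings raised 2 weeks in field soil under glass receive an overall foliar spray of wettable powder diluted in water, giving 1000 g active component per hectare.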

[3] = test system: A. retroflexus; experiment: as above; set-up: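 index 0 to 10 in 10% steps of herbicidal effect with 10 meaning complete death and 0 below 10%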; details: 1000 g effective component per hectare, day 14 after the treatment
Summary of the method: as §2

[4] = test system: Indian millet; experiment: Herbicidal activity by field soil treatment (Test example 2); set-up: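 index 0 to 10 in 10% steps of herbicidal effect with 10 meaning complete death and 0 below 10%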; details: 1000 g effective component per hectare, day 21 after the treatment
Summary of the method: (§3)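 Herbicidal effect is rated by fixed criteria on day 21 post-treatment. Before that, pots of field soil holding freshly sown, soil-covered seeds receive a surface spray of diluted wettable powder (1000 g per hectare effective component, spray volume 1000 liters per hectare) and are kept in a greenhouse.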

[5] = test system: Echinochloa crus-galli; experiment: as above; set-up: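 index 0 to 10 in 10% steps of herbicidal effect with 10 meaning complete death and 0 below 10%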; details: 1000 g effective component per hectare, day 21 after the treatment
Summary of the method: as §3

[6] = test system: A. retroflexus; experiment: as above; set-up: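 index 0 to 10 in 10% steps of herbicidal effect with 10 meaning complete death and 0 below 10%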; details: 1000 g effective component per hectare, day 21 after the treatment
Summary of the method: as §3

[7] = test system: Monochoria vaginalis; experiment: Herbicidal activity by paddy field soil treatment (Test Example 1); set-up: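 index 0 to 10 in 10% steps of herbicidal effect with 10 meaning complete death and 0 below 10%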; details: 1000 g of effective component per hectare, evaluated on day 21 after the treatment, criteria of Table 72
Summary of the method: (§4)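 Herbicidal effect is rated on a graded scale 21 days after treatment. Treatment: wettable powder diluted in water, applied onto the flood water (3 cm deep) of sown paddy-soil pots on the day after sowing, 1000 g active component per hectare, greenhouse cultivation.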

[8] = test system: Echinochloa oryzicola; experiment: as above; set-up: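 index 0 to 10 in 10% steps of herbicidal effect with 10 meaning complete death and 0 below 10%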; details: 1000 g of effective component per hectare, evaluated on day 21 after the treatment, criteria of Table 72
Summary of the method: as §4

[9] = test system: Scirpus juncoides Rocxb.; experiment: as above; set-up: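 index 0 to 10 in 10% steps of herbicidal effect with 10 meaning complete death and 0 below 10%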; details: applied on water surface, 1000 g of effective component per hectare, day 21 after the treatment
Summary of the method: as §4

[10] = test system: foxtail; experiment: Herbicidal activity by field soil treatment (Test example 2); details: 1000 g effective component per hectare, day 21 after the treatment;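 further: index 0 to 10 in 10% steps of herbicidal effect with 10 meaning complete death and 0 below 10%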
Summary of the method: as §3

[11] = test system: Setaria viridis; experiment: Herbicidal activity by field foliage treatment (Test example 3); details: 1000 g effective component per hectare, day 14 after the treatment;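 further: index 0 to 10 in 10% steps of herbicidal effect with 10 meaning complete death and 0 below 10%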
Summary of the method: as §1

Compound	herbicidal effect index, Echinochloa crus-galli [1]	herbicidal effect index, Abutilon theophrasti [2]	herbicidal effect index, Amaranthus retroflexus [3]	herbicidal effect index, Abutilon theophrasti [4]	herbicidal effect index, Echinochloa crus-galli [5]	herbicidal effect index, Amaranthus retroflexus [6]	Herbicidal effects index number, Monochoria vaginalis [7]	Herbicidal effects index number, Echinochloa oryzicola [8]	herbicidal effect index, S. juncoides Rocxb. [9]	herbicidal effect index, Setaria viridis [10]	herbicidal effect index, Setaria viridis [11]
Cn1nc(C(=O)C2=C(O)CCCC2=O)c(=O)n(N2CCOCC2)c1=O [I-202]	9	9	9	9	10	10	10	10	10	9	9
Cn1nc(C(=O)C2=C(O)CCCC2=O)c(=O)n(C)c1=S [I-265]	8	9	10	10	10	10	10	10	10	10	9
Cn1nc(C(=O)C2=C(O)CCCC2=O)c(=O)n(-c2ccccc2-c2ccccc2)c1=O [I-269]	10	9	10	9	8	10	8	8	10	9	8
Cn1nc(C(=O)C2=C(O)CCCC2=O)c(=O)n(-c2ccc(-c3ccccc3)cc2)c1=O [I-271]	10	9	10	10	10	10	8	8	10	10	7
Cn1nc(C(=O)C2=C(O)CCCC2=O)c(=O)n(-c2cccnc2Cl)c1=O [I-276]	10	9	10	10	9	10	8	8	9	9	10
Cc1ncccc1-n1c(=O)c(C(=O)C2=C(O)CCCC2=O)nn(C)c1=O [I-277]	10	9	10	7	8	8	9	9	10	8	9
Cn1nc(C(=O)C2=C(O)CCCC2=O)c(=O)n(-c2ccnc(Br)c2)c1=O [I-281]	9	9	9	9	9	10	10	10	10	9	7
Cc1cc(Br)ccc1-n1c(=O)c(C(=O)C2=C(O)CCCC2=O)nn(C)c1=O [I-282]	8	9	8	9	10	10	10	10	10	10	7
Cc1ccc(C(F)(F)F)cc1-n1c(=O)c(C(=O)C2=C(O)CCCC2=O)nn(C)c1=O [I-284]	9	8	9	9	10	10	10	10	10	8	7
Cc1cccc(OC(F)(F)F)c1-n1c(=O)c(C(=O)C2=C(O)CCCC2=O)nn(C)c1=O [I-285]	9	7	8	10	10	10	10	10	10	10	9
CC(C)c1ccccc1-n1c(=O)c(C(=O)C2=C(O)CCCC2=O)nn(C)c1=O [I-286]	10	9	10	9	10	10	10	10	9	9	10
CCc1ccccc1-n1c(=O)c(C(=O)C2=C(O)CCCC2=O)nn(C)c1=O [I-288]	9	10	10	9	10	10	10	10	10	9	10
